One data set addresses T1, ATAD2A (h) bromodomain (Homo sapiens, UniProt Q6PL18).
T1 construct: Bromodomain
T1 sequence (Q6PL18 980-1092 limits assumed): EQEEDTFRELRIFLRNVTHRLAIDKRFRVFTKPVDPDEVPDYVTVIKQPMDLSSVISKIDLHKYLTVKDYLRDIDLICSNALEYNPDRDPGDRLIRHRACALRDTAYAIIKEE
The data set is described as follows: Epigenetic binding assay, Bromodomain. To be noted: for inhibition at 10 µM: read-out: % Inhibition of Control Specific Binding.

A further data set concerns the target T2, BRD3(1) (h) bromodomain (Homo sapiens, UniProt Q15059).
T2 construct: Bromodomain
The data set is described as follows: Epigenetic binding assay, Bromodomain. Conditions: read-out: % Inhibition of Control Specific Binding.

Another data set addresses T3, SP140 (h) PHD domain (Homo sapiens, UniProt Q13342).
T3 construct: Eurofins CEREP (France), contract laboratory
As to the kind of experiment: Epigenetic binding assay, PHD domain. To be noted: for inhibition at 10 µM: read-out: % Inhibition of Control Specific Binding.

The test system of a further data set is H3K4 me2. As to the kind of experiment: Cell-based detection methyl modifications. Conditions: read-out: % Inhibition of Control Values.
The target of the next data set is HDAC3 (h) (Homo sapiens, UniProt O15379). The data set is described as follows: Epigenetic enzyme assay, Histone deacetylase (HDACs). The format is biochemical. Conditions: read-out: % Inhibition of Control Values.
Chain of HDAC3 (h) (O15379 whole entry): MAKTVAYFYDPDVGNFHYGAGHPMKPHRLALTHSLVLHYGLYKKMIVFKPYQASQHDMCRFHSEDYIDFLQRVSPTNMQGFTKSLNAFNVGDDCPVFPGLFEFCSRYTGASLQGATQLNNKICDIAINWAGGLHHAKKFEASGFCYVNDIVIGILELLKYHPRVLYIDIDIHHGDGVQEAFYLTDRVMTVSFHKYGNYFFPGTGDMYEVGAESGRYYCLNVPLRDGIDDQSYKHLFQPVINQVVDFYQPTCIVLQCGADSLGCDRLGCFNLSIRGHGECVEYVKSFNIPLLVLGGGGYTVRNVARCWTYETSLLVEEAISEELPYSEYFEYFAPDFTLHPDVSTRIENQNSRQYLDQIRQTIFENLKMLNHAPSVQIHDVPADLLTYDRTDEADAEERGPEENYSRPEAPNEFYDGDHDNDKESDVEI
Chain of HDAC3 (h) (Q9Y618 395-489 partner limits assumed): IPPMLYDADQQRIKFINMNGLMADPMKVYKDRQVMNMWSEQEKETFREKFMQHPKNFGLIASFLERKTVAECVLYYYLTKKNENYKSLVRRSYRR
For data set [1], the target named is Rsk2(h) (substrate histone H3 full length) (Homo sapiens, UniProt P51812). The data set is described as follows: Epigenetic enzyme assay, Kinases. It counts as biochemical. Conditions: read-out: % Inhibition of Control Values.
Chain of Rsk2(h) (substrate histone H3 full length) (P51812 whole entry): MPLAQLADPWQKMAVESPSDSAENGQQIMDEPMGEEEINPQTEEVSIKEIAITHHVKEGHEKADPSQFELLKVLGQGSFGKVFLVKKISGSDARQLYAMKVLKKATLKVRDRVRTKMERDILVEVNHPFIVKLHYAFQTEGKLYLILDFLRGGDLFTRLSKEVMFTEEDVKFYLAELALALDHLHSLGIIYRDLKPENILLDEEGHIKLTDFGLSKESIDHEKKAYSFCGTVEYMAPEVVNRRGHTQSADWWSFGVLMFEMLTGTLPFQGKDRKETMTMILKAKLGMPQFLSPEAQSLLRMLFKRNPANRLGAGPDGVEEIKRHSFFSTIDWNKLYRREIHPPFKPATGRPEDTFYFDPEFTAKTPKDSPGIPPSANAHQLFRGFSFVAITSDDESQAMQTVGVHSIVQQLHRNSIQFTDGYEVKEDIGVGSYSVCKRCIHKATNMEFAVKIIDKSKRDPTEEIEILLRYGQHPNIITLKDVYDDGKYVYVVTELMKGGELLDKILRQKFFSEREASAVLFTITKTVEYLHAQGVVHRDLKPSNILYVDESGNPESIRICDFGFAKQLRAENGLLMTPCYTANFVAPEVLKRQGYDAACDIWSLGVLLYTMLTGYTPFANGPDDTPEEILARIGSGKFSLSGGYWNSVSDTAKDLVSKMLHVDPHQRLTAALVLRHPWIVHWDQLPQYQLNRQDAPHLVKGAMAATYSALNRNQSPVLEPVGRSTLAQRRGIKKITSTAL
Data set [2] deals with Histamine N-methyltransferase (h) (Homo sapiens, UniProt P50135). The data set is described as follows: Epigenetic enzyme assay, Small molecule methyltransferases. The format is biochemical. To be noted: read-out: % Inhibition of Control Values.
Chain of Histamine N-methyltransferase (h) (P50135 whole entry): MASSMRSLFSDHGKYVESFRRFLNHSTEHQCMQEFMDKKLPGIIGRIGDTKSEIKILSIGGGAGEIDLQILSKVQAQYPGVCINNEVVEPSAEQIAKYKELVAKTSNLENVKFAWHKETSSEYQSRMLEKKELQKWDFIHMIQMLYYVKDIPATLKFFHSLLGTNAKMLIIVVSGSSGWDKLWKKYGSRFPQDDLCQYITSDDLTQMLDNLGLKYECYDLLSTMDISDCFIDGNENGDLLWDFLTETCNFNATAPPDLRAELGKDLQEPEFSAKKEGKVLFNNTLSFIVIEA
Another data set has as its target USP 16 (h) (Homo sapiens, UniProt Q9Y5T5). As to the kind of experiment: Epigenetic enzyme assay, Ubiquitin modifying enzymes. The format is biochemical. To be noted: 10 μM; read-out: % Inhibition of Control Values.
The target of the next data set is T4, Lipoxygenase 12-LO (Homo sapiens, UniProt P18054).
T4 construct: Human platelets; from tissue; host or cells: human platelets
T4 sequence (P18054 1-663): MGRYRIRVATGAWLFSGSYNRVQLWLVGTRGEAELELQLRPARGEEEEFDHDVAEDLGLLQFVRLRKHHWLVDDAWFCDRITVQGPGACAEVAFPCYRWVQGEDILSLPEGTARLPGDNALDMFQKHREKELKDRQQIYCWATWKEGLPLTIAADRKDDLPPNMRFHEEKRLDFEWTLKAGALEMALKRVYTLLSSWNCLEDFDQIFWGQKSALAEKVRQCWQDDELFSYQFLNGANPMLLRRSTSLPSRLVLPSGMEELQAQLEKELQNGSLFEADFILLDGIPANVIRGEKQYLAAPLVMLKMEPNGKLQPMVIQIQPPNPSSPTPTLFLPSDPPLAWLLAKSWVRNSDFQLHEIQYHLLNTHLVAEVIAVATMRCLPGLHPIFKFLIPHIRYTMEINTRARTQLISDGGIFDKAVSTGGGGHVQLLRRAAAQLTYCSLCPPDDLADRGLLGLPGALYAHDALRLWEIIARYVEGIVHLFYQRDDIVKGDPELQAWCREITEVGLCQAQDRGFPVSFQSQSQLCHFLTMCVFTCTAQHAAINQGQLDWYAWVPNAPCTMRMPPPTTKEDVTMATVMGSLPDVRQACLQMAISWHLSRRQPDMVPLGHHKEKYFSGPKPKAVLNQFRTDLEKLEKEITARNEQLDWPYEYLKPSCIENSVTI
The data set is described as follows: Lipoxygenase 12-LO. To be noted: assay year 2015, read-out: % Control Response. The format is biochemical. Here is the method:
(§1) The in vitro pharmacological studies were conducted by Eurofins PanLab (Taiwan) using the parameters shown in Table 13 with respect to appropriate literature references.

The target in a further data set is T5, Xanthine Oxidase (Bos taurus, UniProt P80457).
T5 construct: Bovine buttermilk; from tissue; host or cells: bovine buttermilk
T5 sequence (P80457 whole entry): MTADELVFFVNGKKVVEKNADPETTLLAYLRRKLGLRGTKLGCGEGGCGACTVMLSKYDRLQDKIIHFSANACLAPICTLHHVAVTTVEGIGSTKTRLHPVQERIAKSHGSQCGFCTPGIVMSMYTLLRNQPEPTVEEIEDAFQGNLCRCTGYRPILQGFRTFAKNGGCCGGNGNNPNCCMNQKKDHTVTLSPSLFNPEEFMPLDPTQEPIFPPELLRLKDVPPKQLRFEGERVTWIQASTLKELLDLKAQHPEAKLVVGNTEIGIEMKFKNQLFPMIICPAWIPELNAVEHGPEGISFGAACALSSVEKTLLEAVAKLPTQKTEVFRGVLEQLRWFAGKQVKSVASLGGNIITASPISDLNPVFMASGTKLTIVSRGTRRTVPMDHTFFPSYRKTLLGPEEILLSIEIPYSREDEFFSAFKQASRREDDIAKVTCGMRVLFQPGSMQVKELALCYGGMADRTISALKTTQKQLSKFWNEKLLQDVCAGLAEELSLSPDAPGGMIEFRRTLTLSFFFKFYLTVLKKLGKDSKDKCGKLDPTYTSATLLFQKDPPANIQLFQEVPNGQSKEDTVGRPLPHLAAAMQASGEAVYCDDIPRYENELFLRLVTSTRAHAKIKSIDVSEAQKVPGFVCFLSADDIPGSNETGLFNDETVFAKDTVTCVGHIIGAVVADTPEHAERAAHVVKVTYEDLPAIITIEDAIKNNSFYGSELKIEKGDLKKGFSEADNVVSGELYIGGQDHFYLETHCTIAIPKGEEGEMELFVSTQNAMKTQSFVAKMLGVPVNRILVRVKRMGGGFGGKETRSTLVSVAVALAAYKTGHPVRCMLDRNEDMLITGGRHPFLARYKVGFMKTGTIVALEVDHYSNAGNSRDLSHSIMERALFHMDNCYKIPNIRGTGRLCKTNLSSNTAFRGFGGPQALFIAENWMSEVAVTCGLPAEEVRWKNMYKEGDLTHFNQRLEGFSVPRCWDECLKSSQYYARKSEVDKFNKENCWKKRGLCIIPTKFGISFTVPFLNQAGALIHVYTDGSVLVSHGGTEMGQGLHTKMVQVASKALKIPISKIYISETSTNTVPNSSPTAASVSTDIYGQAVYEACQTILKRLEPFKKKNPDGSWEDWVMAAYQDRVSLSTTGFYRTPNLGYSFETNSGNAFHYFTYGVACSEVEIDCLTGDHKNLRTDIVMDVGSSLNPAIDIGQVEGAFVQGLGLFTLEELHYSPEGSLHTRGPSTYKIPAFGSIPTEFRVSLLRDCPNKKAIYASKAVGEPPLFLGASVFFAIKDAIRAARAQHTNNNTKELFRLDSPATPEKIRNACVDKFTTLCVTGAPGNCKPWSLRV
The data set is described as follows: Xanthine Oxidase. It counts as biochemical, Bovine. Conditions: assay year 2015, read-out: % Control Response. Here is the method: as §1

The subject of another data set is IM-9. The data set is described as follows: OncoPanel cell proliferation assay (10-day). It counts as cell-based, human. Conditions: for EC50 / GI50 / IC50: Homo sapiens, IM-9, Myeloma; for EC50: read-out: Cell Count EC50; for GI50: read-out: Cell Count GI50; for IC50: read-out: Cell Count IC50.
The next data set addresses T6, CYP2B6 (Homo sapiens, UniProt P20813).
T6 sequence (P20813 1-491): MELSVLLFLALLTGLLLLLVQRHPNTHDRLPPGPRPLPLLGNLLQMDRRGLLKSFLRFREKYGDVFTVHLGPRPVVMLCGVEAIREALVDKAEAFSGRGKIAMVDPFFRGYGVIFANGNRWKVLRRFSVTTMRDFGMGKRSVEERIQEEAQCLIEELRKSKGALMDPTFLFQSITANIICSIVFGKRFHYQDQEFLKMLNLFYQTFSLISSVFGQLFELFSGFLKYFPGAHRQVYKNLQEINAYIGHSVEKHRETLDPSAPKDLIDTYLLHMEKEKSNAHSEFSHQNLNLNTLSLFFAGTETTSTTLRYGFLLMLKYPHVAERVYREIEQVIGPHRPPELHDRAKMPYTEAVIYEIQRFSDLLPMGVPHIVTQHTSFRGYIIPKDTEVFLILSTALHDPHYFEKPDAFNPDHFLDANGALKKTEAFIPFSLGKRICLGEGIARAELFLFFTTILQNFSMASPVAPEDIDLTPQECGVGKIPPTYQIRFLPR
The data set is described as follows: Cytochrome P450 Inhibition (CYP panel). Conditions: human, probe bupropion.

The target in data set [3] is CYP2D6 (Dextromethorphan Substrate) (Homo sapiens, UniProt P10635). As to the kind of experiment: Cytochrome P450 Inhibition (CYP panel). Conditions: CYP2D6 (dextromethorphan sub.); Human liver microsomes; 1 μM. On the technique in general: Microsomes from liver hold many membrane-bound enzymes, among them those of drug oxidation.
Chain of CYP2D6 (Dextromethorphan Substrate) (P10635 whole entry): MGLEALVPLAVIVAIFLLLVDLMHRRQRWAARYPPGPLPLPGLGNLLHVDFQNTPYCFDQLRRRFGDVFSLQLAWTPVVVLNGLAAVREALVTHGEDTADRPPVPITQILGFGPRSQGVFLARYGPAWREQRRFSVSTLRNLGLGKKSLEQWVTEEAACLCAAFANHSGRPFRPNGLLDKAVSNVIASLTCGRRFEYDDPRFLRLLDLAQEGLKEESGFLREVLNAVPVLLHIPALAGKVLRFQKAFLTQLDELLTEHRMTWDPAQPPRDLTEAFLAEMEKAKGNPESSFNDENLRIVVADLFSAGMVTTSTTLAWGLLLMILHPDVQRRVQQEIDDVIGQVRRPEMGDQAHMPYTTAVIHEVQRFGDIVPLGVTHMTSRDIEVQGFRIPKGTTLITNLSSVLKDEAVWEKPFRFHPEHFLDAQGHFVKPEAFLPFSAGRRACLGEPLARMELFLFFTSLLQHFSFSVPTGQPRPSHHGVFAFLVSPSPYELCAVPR

What is called inhibition is the relative decrease from the control value, in per cent. The term EC50 denotes the concentration at which the effect is half-maximal. Broadly, the GI50 is the concentration that inhibits growth by half. For orientation: IC50 means the concentration needed to halve the response being measured.

T3 sequence (Q13342 690-736 limits assumed): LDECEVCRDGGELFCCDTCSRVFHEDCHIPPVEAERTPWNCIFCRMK
Chain of USP 16 (h) (Q9Y5T5 whole entry): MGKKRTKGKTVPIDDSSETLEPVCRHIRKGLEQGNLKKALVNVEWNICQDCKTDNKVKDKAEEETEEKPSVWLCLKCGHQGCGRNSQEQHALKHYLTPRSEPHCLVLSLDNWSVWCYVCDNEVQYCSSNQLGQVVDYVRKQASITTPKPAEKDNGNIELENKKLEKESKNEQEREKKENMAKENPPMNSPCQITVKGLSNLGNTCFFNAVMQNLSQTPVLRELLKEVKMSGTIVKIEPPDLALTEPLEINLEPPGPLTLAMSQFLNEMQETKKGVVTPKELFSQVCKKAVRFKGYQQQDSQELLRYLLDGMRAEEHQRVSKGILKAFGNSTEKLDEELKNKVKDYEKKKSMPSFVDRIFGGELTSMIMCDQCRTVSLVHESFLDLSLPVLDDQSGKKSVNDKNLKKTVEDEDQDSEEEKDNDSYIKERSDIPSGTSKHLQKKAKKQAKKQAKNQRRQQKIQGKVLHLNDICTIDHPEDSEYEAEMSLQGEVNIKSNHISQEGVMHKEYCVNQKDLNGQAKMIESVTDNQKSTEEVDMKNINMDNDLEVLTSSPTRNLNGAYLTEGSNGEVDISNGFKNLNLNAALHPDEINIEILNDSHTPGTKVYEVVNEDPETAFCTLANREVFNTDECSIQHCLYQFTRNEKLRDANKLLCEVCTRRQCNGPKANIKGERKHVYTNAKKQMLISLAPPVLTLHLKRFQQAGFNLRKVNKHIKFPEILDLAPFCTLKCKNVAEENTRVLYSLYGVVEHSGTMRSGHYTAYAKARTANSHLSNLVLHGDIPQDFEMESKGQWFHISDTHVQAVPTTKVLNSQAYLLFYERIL
T2 sequence (Q15059 34-140 limits assumed): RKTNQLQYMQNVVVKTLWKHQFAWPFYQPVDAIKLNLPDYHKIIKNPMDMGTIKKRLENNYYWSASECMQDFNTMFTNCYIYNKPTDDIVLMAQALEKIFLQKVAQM

`CC(C)=CCC[C@@H]1C(O)Oc2c(C)cc(O)c3c2[C@H]1CC[C@H]3C` (some centres unmarked) [Compound 2, 5,18-epoxyserrulat-14-en-8,18-diol]: the inhibition at 10 µM on ATAD2A (h) bromodomain (10 μM) is 16%; at BRD3(1) (h) bromodomain, 17%; at SP140 (h) PHD domain (10 μM), 0%; in the data set with H3K4 me2 it was -1%; at HDAC3 (h), 1%; in data set [1] it was 7%. In addition, the inhibition at 10 µM is -2% in data set [2], 14% on USP 16 (h) and 38% on CYP2B6 (liver microsomes). Further, the remaining activity at 10 µM was 40% on Lipoxygenase 12-LO and 20% on Xanthine Oxidase. Moreover, in the data set with IM-9, the EC50 was determined as 3.92 µM. Further, in the data set on IM-9, the GI50 worked out at 3.92 µM. The IC50 in the data set with IM-9 was 3.92 µM. In addition, the inhibition at 1 µM is 13 to 16% at CYP2B6 (human liver microsomes) and 15% on CYP2B6 (liver microsomes). The “% Inhibition of Control Values” in [3] is on record as 18%.

For `CC(C)=CCC[C@@H]1COc2c(C)cc(O)c3c2[C@H]1CC[C@H]3C` [Compound 3, 5,18-epoxy-8-hydroxyserrulat-14-ene], the inhibition at 10 µM was 9% on ATAD2A (h) bromodomain (10 μM); 13% at BRD3(1) (h) bromodomain; 2% at SP140 (h) PHD domain (10 μM); -9% in the data set with H3K4 me2; 3% on HDAC3 (h); -4% in data set [1]. Moreover, the inhibition at 10 µM was 18% in data set [2] and 12% at USP 16 (h). The remaining activity at 10 µM on Lipoxygenase 12-LO came out at 29%; on Xanthine Oxidase, 27%.

`CC(C)=CCC[C@H](CO)[C@@H]1CC[C@@H](C)c2c1cc(C)c(O)c2O` [Compound 1, 7,8,18-trihydroxyserrulat-14-ene]: the “% Inhibition of Control Specific Binding” value at ATAD2A (h) bromodomain (10 μM) is on record as “significant inhibitory activity”; on SP140 (h) PHD domain (10 μM), “good inhibitory activity”. The inhibition at 10 µM on ATAD2A (h) bromodomain (10 μM) was 100%; at BRD3(1) (h) bromodomain, 47%; on SP140 (h) PHD domain (10 μM) it was 74%; in the data set on H3K4 me2 it was -5%; on HDAC3 (h), 1%; in [1] it was 5%. The inhibition at 10 µM is 18% in data set [2], 11% at USP 16 (h) and 55% against CYP2B6 (liver microsomes). Also, the IC50 at ATAD2A (h) bromodomain (Table 9, inhibition/concentration-response curve, read-out: IC50) amounted to 3.1 µM; on SP140 (h) PHD domain (Table 9, inhibition/concentration-response curve) it was 4.6 µM; in the data set with IM-9 it was 0.42 µM. Further, the remaining activity at 10 µM at Lipoxygenase 12-LO stood at 60%; on Xanthine Oxidase it was 14%. Also, in the data set with IM-9, the EC50 worked out at 0.42 µM. In the data set with IM-9, the GI50 was 0.42 µM. In addition, the “Relative cell count (%) Mean” value with IM-9 (IM-9, 3.00E+00 microM) is reported as 0.1%; in the data set on IM-9 (IM-9, 3.00E+01 microM), 0.0%; in the data set with IM-9 (IM-9, 3.01E−01 microM), 97.5%; in the data set on IM-9 (IM-9, 3.01E−02 microM) it was 107.3%; in the data set with IM-9 (IM-9, 3.02E−03 microM), 102.8%; with IM-9 (IM-9, 9.49E+00 microM), 0.1%. For the same compound, the “Relative cell count (%) Mean” value with IM-9 (IM-9, 9.51E−01 microM) worked out at 0.0%; in the data set with IM-9 (IM-9, 9.52E−02 microM), 97.7%; with IM-9 (IM-9, 9.53E−03 microM), 103.1%; in the data set with IM-9 (IM-9, 9.55E−04 microM), 94.9%. The inhibition at 1 µM on CYP2B6 (human liver microsomes) was 13 to 16%; against CYP2B6 (liver microsomes), 13%. For the same compound, the “% Inhibition of Control Values” in data set [3] amounted to 13%.

Take `CC(C)=CCC[C@H](C)[C@@H]1CC[C@@H](C)c2c1cc(C)c(O)c2O` [Compound 4, 7,8-dihydroxyserrulat-14-ene]: in the data set on IM-9, the EC50 is 6.71 µM, the GI50 was determined as 6.71 µM and the IC50 came out at 6.71 µM. In addition, the inhibition at 1 µM on CYP2B6 (human liver microsomes) is 13 to 16%. For the same compound, on CYP2B6 (liver microsomes), the inhibition at 1 µM is 16% and the inhibition at 10 µM was 49%. Also, in data set [3], the “% Inhibition of Control Values” was 21%.

These data come from patent US11331299B2, “Medicinal use of serrulatane diterpenes” (The University of Sydney, priority 2016, dated 2022).
